Laboratory results taken from patent publication US5849729A, “Use of hydrolyzed cocoa butter for percutaneous absorption” (Hershey Foods Corporation, priority 1995, dated 1998).
Values joined by “and” are separate entries in the source; they are usually repeats but may differ in a detail not shown here. Equal entries are not always repeated.

How the values were obtained:
[1] = In-vitro percutaneous absorption of retinoic acid and triamcinolone acetonide from two cocoa butter vehicles (Franz cells, 48 h); conditions: for % Abs (% Absorbed) / % Absorbed / total absorption: percent of applied dose
Excerpt: The objective of this study was to measure the permeation of retinoic acid and triamcinolone acetonide through human skin in-vitro from two cocoa butter vehicles.
Two cocoa butter vehicles supplied by Hershey Foods Corporation were utilized: (1) pure cocoa butter and (2) partially hydrolyzed cocoa butter emulsion. Radioactive [11,12-^3 H] [retinoic acid (NET 920, Lot 2930-067, specific activity 1 mCi/ml) and [6,7-^3 H]-triamcinolone acetonide (NET 470, Lot 2904-170, specific activity 1 mCi/ml) were obtained from Dupont-New England Nuclear Corporation, Boston, Mass.
Each of the two cocoa butter vehicles was spiked separately with ^3 H-retinoic acid and ^3 H-Triamcinolone acetonide to give a total of four radioactive formulations for study. This was done by adding 25 μl (containing 25 μCi) of each tracer solution to approximately 1 gram of each vehicle and mixing with the tip of the dispensing micropipette. The pure cocoa butter vehicle was liquified by holding it under warm tap water prior to spiking. This was not done with the partially hydrolyzed cocoa butter emulsion. Neither formulation was used for three days after spiking to allow for diffusional mixing to take place. Final radioactive concentrations of each formulation were: […]
Human trunk skin without obvious signs of disease was used throughout. It was obtained within 24 hours of death, dermatomed to a thickness of approximately 0.25 mm, cryopreserved and sealed in water vapor-impermeableplastic bags. It was stored at -70° C. until the day of use then thawed by placing the bag in 37° C. water.
Skin from a single donor was cut into multiple sections large enough to fit on 0.8 cm^2 Franz cells. The dermal chamber was filled with isotonic saline, pH 7.4, into which a small magnetic stirring bar was placed. The epidermal chamber was left open to the ambient laboratory environment, approximately 22° C. and 40-60% RH. The cells were placed in a diffusion apparatus in which the dermal receptor solution was stirred magnetically at 600 RPM and its temperature maintained at 37° C.
To assure the integrity of each skin section, its permeability to tritiated water was determined before application of the test formulations. Following a brief (0.5-1 hour) equilibration period, 150 μl ^3 H2 O (specific activity 0.3 μCi/ml) was layered across the top of the skin section so that the entire exposed surface was covered. After 5 minutes the aqueous layer was removed and the surface of the skin carefully blotted dry. At t=0.5 hour the saline receptor phase was removed and analyzed for radioactive content by liquid scintillation counting. Skin specimens in which absorption of ^3 H2 O was less than 1.25 μl were considered acceptable.
Subsequently, each test formulation was applied at a target dose of 10 mg (cream) or 10 μl (butter). The cream formulation (partially hydrolyzed cocoa butter emulsion) was applied from the smooth, rounded-tip of a glass rod, the exact amount determined by weighing the rod before and after application. The butter formulation (pure cocoa butter) was first liquified under warm tap water, allowed to cool to room temperature, then applied with a 10 μl positive displacement micropipette prior to resolidifying. At 4, 8, 12, 24, 36 and 48 hours the receptor solution was removed in its entirety, replaced with fresh solution, and a 1 ml aliquot taken and assayed for radioactive content by liquid scintillation counting.
A 1 ml aliquot of each receptor sample containing ^3 H2 O, ^3 H-retinoic acid, or ^3 H-triamcinolone acetonide was placed in a 7 ml glass scintillation vial and gelled by the addition of 5 ml Opti-Fluor (Packard Instrument Co., Meriden, Conn.). These were counted in a Packard Tri-Carb Model 1900CA Liquid scintillation Analyzer equipped with internal standard and automatic quench correction.

[2] = currently available / commercial formulations, trunk skin; cited from earlier work
[3] = cream (partially hydrolyzed cocoa butter emulsion), 48 h, individual skin sections
[4] = cream, 48 h, average of three donors
[5] = cream, 48 h, average per skin donor (n=4), listed as RETINOIC ACID
[6] = cream, 48 h, average per skin donor (n=4), listed as Retinoic Acid

CC1=C(/C=C/C(C)=C/C=C/C(C)=C/C(=O)O)C(C)(C)CCC1 [retinoic acid]
Penet (Total Penetration) [1, 3]: 824.73 and 721.36 and 745.68 and 808.17 and 1027.61 and 945.49 and 550.30 and 524.77 and 919.75 and 670.20 and 859.80 and 1068.35 | % Abs (% Absorbed) [1, 3]: 14.03% and 14.76% and 13.59% and 17.11% and 17.20% and 15.81% and 13.56% and 15.67% and 21.00% and 18.37% and 18.57% and 20.67% | Rate of absorption, R1 ([1]; cream (partially hydrolyzed cocoa butter emulsion), sample R1, mid-t 2 h, individual skin sections): 40.91 ng/cm^2 /hr and 36.94 ng/cm^2 /hr and 38.12 ng/cm^2 /hr and 45.28 ng/cm^2 /hr and 74.50 ng/cm^2 /hr and 68.54 ng/cm^2 /hr and 46.23 ng/cm^2 /hr and 49.65 ng/cm^2 /hr and 16.18 ng/cm^2 /hr and 50.09 ng/cm^2 /hr and 69.86 ng/cm^2 /hr and 77.41 ng/cm^2 /hr | Rate of absorption, R3 ([1]; cream (partially hydrolyzed cocoa butter emulsion), sample R3, mid-t 10 h, individual skin sections): 23.20 ng/cm^2 /hr and 19.99 ng/cm^2 /hr and 20.80 ng/cm^2 /hr and 24.15 ng/cm^2 /hr and 28.97 ng/cm^2 /hr and 25.18 ng/cm^2 /hr and 16.74 ng/cm^2 /hr and 15.77 ng/cm^2 /hr and 27.41 ng/cm^2 /hr and 19.26 ng/cm^2 /hr and 26.16 ng/cm^2 /hr and 30.74 ng/cm^2 /hr | Rate of absorption, R4 ([1]; cream (partially hydrolyzed cocoa butter emulsion), sample R4, mid-t 18 h, individual skin sections): 17.83 ng/cm^2 /hr and 16.44 ng/cm^2 /hr and 14.68 ng/cm^2 /hr and 15.42 ng/cm^2 /hr and 27.53 ng/cm^2 /hr and 24.05 ng/cm^2 /hr and 12.20 ng/cm^2 /hr and 11.56 ng/cm^2 /hr and 26.23 ng/cm^2 /hr and 18.49 ng/cm^2 /hr and 25.34 ng/cm^2 /hr and 30.20 ng/cm^2 /hr | Rate of absorption, R5 ([1]; cream (partially hydrolyzed cocoa butter emulsion), sample R5, mid-t 30 h, individual skin sections): 14.89 ng/cm^2 /hr and 15.68 ng/cm^2 /hr and 17.30 ng/cm^2 /hr and 17.77 ng/cm^2 /hr and 15.95 ng/cm^2 /hr and 14.81 ng/cm^2 /hr and 8.32 ng/cm^2 /hr and 7.95 ng/cm^2 /hr and 15.24 ng/cm^2 /hr and 11.88 ng/cm^2 /hr and 12.50 ng/cm^2 /hr and 19.16 ng/cm^2 /hr | Rate of absorption, R6 ([1]; cream (partially hydrolyzed cocoa butter emulsion), sample R6, mid-t 42 h, individual skin sections): 20.33 ng/cm^2 /hr and 14.24 ng/cm^2 /hr and 14.46 ng/cm^2 /hr and 17.62 ng/cm^2 /hr and 16.38 ng/cm^2 /hr and 15.16 ng/cm^2 /hr and 8.78 ng/cm^2 /hr and 7.68 ng/cm^2 /hr and 13.21 ng/cm^2 /hr and 9.49 ng/cm^2 /hr and 10.20 ng/cm^2 /hr and 14.22 ng/cm^2 /hr | Total Penetration [1, 4]: 805.52 | Penet (Total Penetration) [1, 5]: 774.99 and 762.04 and 879.52 | Penet (Total Penetration) [1, 6]: 879.52 and 762.04 and 774.99 | Rate of absorption, R1 ([1]; cream, R1, mid-t 2 h, average of three donors): 55.06 ng/cm^2 /hr | Rate of absorption, R1 ([1]; cream, R1, mid-t 2 h, average per skin donor (n=4), listed as RETINOIC ACID): 40.32 ng/cm^2 /hr and 59.73 ng/cm^2 /hr and 65.14 ng/cm^2 /hr | Rate of absorption, R1 ([1]; cream, R1, mid-t 2 h, average per skin donor (n=4), listed as Retinoic Acid): 65.14 ng/cm^2 /hr and 59.73 ng/cm^2 /hr and 40.32 ng/cm^2 /hr | Rate of absorption, R3 ([1]; cream, R3, mid-t 10 h, average of three donors): 23.20 ng/cm^2 /hr | Rate of absorption, R3 ([1]; cream, R3, mid-t 10 h, average per skin donor (n=4), listed as RETINOIC ACID): 22.04 ng/cm^2 /hr and 21.67 ng/cm^2 /hr and 25.89 ng/cm^2 /hr | Rate of absorption, R3 ([1]; cream, R3, mid-t 10 h, average per skin donor (n=4), listed as Retinoic Acid): 25.89 ng/cm^2 /hr and 21.67 ng/cm^2 /hr and 22.04 ng/cm^2 /hr | Rate of absorption, R4 ([1]; cream, R4, mid-t 18 h, average of three donors): 20.00 ng/cm^2 /hr | Rate of absorption, R4 ([1]; cream, R4, mid-t 18 h, average per skin donor (n=4), listed as RETINOIC ACID): 16.09 ng/cm^2 /hr and 18.83 ng/cm^2 /hr and 25.07 ng/cm^2 /hr | Rate of absorption, R4 ([1]; cream, R4, mid-t 18 h, average per skin donor (n=4), listed as Retinoic Acid): 25.07 ng/cm^2 /hr and 18.83 ng/cm^2 /hr and 16.09 ng/cm^2 /hr | Rate of absorption, R5 ([1]; cream, R5, mid-t 30 h, average of three donors): 14.29 ng/cm^2 /hr | Rate of absorption, R5 ([1]; cream, R5, mid-t 30 h, average per skin donor (n=4), listed as RETINOIC ACID): 16.41 ng/cm^2 /hr and 11.76 ng/cm^2 /hr and 14.70 ng/cm^2 /hr | Rate of absorption, R5 ([1]; cream, R5, mid-t 30 h, average per skin donor (n=4), listed as Retinoic Acid): 14.70 ng/cm^2 /hr and 11.76 ng/cm^2 /hr and 16.41 ng/cm^2 /hr | Rate of absorption, R6 ([1]; cream, R6, mid-t 42 h, average of three donors): 13.47 ng/cm^2 /hr | Rate of absorption, R6 ([1]; cream, R6, mid-t 42 h, average per skin donor (n=4), listed as RETINOIC ACID): 16.62 ng/cm^2 /hr and 12.00 ng/cm^2 /hr and 11.78 ng/cm^2 /hr | Rate of absorption, R6 ([1]; cream, R6, mid-t 42 h, average per skin donor (n=4), listed as Retinoic Acid): 11.78 ng/cm^2 /hr and 12.00 ng/cm^2 /hr and 16.62 ng/cm^2 /hr | % Absorbed / total absorption [1, 4]: 16.7% | % Absorbed / total absorption ([1]; cream, 48 h, average of three donors, listed as Retinoic Acid): 16.69% | % Abs (% Absorbed) [1, 5]: 14.87% and 15.56% and 19.65% | % Abs (% Absorbed) [1, 6]: 19.65% and 15.56% and 14.87% | difference between partially hydrolyzed cocoa butter emulsion and pure cocoa butter as delivery vehicle ([1]; in words): no appreciable difference | average absorption ([1]; with cocoa butter and partially hydrolyzed cocoa butter emulsion (both vehicles)): 16.5% | total absorption from currently available formulations [2]: 1-5 % of the dose
